This is an account of results in patent US9926304B2, “1-(arylmethyl)quinazoline-2,4(1H,3H)-diones as PARP inhibitors and the use thereof” (Impact Therapeutics, Inc., priority 2011, dated 2018).

Molecules are shown by their SMILES. Where only a bound is given, the exact number is not on record here.

Assay [1] deals with BRCA-2 deficient CAPAN-1 human pancreatic cancer cells. In words: MTT based cell viability assay: growth inhibition of BRCA-2 deficient CAPAN-1 cells. Conditions: 240 h, compound alone, 10 day assay. From the text:
Determination of the cell growth inhibiting activity of 1-(3-(4-(pyrimidin-2-yl)piperazine-1-carbonyl)benzyl)quinazoline-2,4(1H,3H)-dione and analogs on BRCA-2 deficient CAPAN-1 pancreatic duck cancer cells using a MTT based cell viability assay
BRCA-deficient cancer cells are sensitive to PARP inhibition. In the presence of PARP inhibitors, BRCA-deficient cancer cells could not grow and eventually will lead to death of cells. BRCA-2 deficient CAPAN-1 human pancreatic cancer cells were used to test the growth inhibiting activity of substituted 1-(arylmethyl)quinazoline-2,4(1H,3H)-diones. Briefly, CAPAN-1 cells are grown and maintained in IMEM medium supplemented with 20% FBS. The assay takes 10 days to finish. On day 1, 6000 CAPAN-1 cells are seeded to each well of a 96-well plate. The cells are incubated at 37° C. in a cell culture incubator overnight. In the next day, serial dilutions of compounds to be tested and reference compound (AZD2281) were prepared with a 1:3 and 1:10 fashion in DMSO. Ten-fold compound solutions were made by mixing 10 μl DMSO serial dilution solutions with 90 μl fresh growth medium. The cell culture medium was removed and 180 μl fresh media with FBS and 20 μl of compound solutions were added to each well. The final concentration of DMSO was 1%. Cells were then returned to the CO2 cell culture incubator and incubated at 37° C. for two days (day 3 and day 4). On day 5, the same procedure as what was done on day 2 was repeated. Cell culture medium was removed and fresh medium containing serial dilutions of compounds or reference compounds were added. Cells were returned to the CO2 cell culture incubator and incubated for two more days. On day 8, same procedure was repeated again and fresh medium containing the testing compounds or reference compounds were added and incubated for an additional 2 days. On day 10, 20 μl of MTT reagent (5 mg/ml) was added to each well of the cell culture plate and incubated for 4 h. The cell culture media was removed and 100 μl DMSO was added to each well. The 96-well cell culture plates were shaked horizontally for 10 min and readed in a Varioskan Flash plate reader (Thermo Fisher Scientific) at 520 and 690 nm. The obtained 520 nm absorbance readings subtracting corresponding 690 nm reading were analyzed using a commercial graphic software (GraphPad Prism 5) and plotted against the Log scale of the compound concentrations.

For assay [2], the system named is SW620 human colorectal cancer cells. The assay is described as follows: MTT based cell viability assay: potentiation of the growth inhibiting activity of MMS. The note with it: Homo sapiens, SW-620, 120 h, read-out: IC50 (nM), potentiation of the growth inhibiting activity of MMS, SW620 cells, 1.7 μg/ml MMS, 5 days (120 hours), MTT.
In assay [3] the test system is Human breast cancer cell line T47D. In words: Cell based caspase-3 activity assay: potentiation of MMS induced apoptosis. Conditions: Homo sapiens, T47D, 24 h, T47D cells, 11.1 μg/ml MMS, 24 hours, intracellular caspase-3 activity; read-out: EC50 (nM), potentiation of the apoptosis inducing activity of MMS. In a few lines:
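T47D cells were exposed for 24 h to compound plus a minimally apoptotic MMS dose (medium containing 11.1 μg/ml MMS). Lysates were incubated 3 h at 37 °C with (Ac-DEVD)2-R110 caspase-3 substrate (20 μM in added buffer) and read at ex 496/em 520 nm. EC50 came from a sigmoidal fit of RFU versus log concentration.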

As to `O=C(c1ccc(F)c(Cn2c(=O)[nH]c(=O)c3ccccc32)c1)N1CCN(c2ncccn2)CC1` [Example 50, 1-(6-Fluoro-3-(4-(pyrimidin-2-yl)piperazine-1-carbonyl)benzyl)quinazoline-2,4(1H,3H)-dione], the values for the IC50 in assay [1] and in assay [2] were 173 nM and 37 nM, respectively. In assay [3], the concentration giving a half-maximal response (EC50) stood at 13 nM.
Regarding `O=C(c1cc(Cn2c(=O)[nH]c(=O)c3cc(Cl)ccc32)ccc1F)N1CCN(C(=O)C2CCCCC2)CC1` [Example 119, 6-Chloro-1-(3-(4-(cyclohexylcarbonyl)piperazine-1-carbonyl)-4-fluorobenzyl)quinazoline-2,4(1H,3H)-dione], the IC50 in assay [1] was found to be 56 nM; in assay [2] it was 0.72 nM. Besides, the concentration for a half-maximal effect (EC50) in assay [3] came out at 3 nM.
Consider `O=C(c1cccc(Cn2c(=O)[nH]c(=O)c3c(F)cccc32)c1)N1CCN(C(=O)C2CCCC2)CC1` [Example 128, 1-(3-(4-(Cyclopentylcarbonyl)piperazine-1-carbonyl)benzyl)-5-fluoroquinazoline-2,4(1H,3H)-dione], for which the IC50 in assay [1] amounted to 442 nM; in assay [2], 37 nM. In assay [3], the concentration for a half-maximal effect (EC50) came out at 12 nM.
With `O=C(c1cccc(Cn2c(=O)[nH]c(=O)c3ccccc32)n1)N1CCN(C(=O)C2CCCC2)CC1` [Example 69, 1-((2-(4-(Cyclopentylcarbonyl)piperazine-1-carbonyl)pyridin-6-yl)methyl)quinazoline-2,4(1H,3H)-dione], the IC50 in assay [1] came to 1980 nM; in assay [2], 352 nM. Moreover, the EC50 in assay [3] stood at 76 nM.
On the same counts, the results for `O=C(c1cccc(Cn2c(=O)[nH]c(=O)c3ccccc32)c1)N1CCN(C(=O)C2CC2)CC1` [Example 15, 1-(3-(4-(Cyclopropylcarbonyl)piperazine-1-carbonyl)benzyl)quinazoline-2,4(1H,3H)-dione] are greater than 10000 nM, 666 nM and 803 nM.
On the same counts, the results for `O=C(c1cc(Cn2c(=O)[nH]c(=O)c3c(Cl)cccc32)ccc1F)N1CCN(C(=O)C2CCCC2)CC1` [Example 104, 5-Chloro-1-(3-(4-(cyclopentylcarbonyl)piperazine-1-carbonyl)-4-fluorobenzyl)quinazoline-2,4(1H,3H)-dione] are 452 nM, 8.3 nM and 2.6 nM.
With `O=C(c1ccc(Br)cc1)N1CCN(C(=O)c2cccc(Cn3c(=O)[nH]c(=O)c4ccccc43)c2)CC1` [Example 11, 1-(3-(4-(4-Bromobenzoyl)piperazine-1-carbonyl)benzyl)quinazoline-2,4(1H,3H)-dione], the values for the IC50 in assay [1] and in assay [2] were 1840 nM and 618 nM, respectively. In addition, in assay [3], the half-maximal effective concentration (EC50) is 214 nM.
Consider `O=C(c1cc(Cn2c(=O)[nH]c(=O)c3c(F)cccc32)ccc1F)N1CCN(C(=O)C2CCCC2)CC1` [Example 133, 1-(3-(4-(Cyclopentylcarbonyl)piperazine-1-carbonyl)-4-fluorobenzyl)-5-fluoroquinazoline-2,4(1H,3H)-dione], for which the IC50 in assay [1] worked out at 22 nM; in assay [2], 4.1 nM. Further, the 50% effective concentration (EC50) in assay [3] is 2.1 nM.
On the same counts, the results for `O=C(c1ccccc1)N1CCN(C(=O)c2cc(Cn3c(=O)[nH]c(=O)c4ccccc43)ccc2F)CC1` [Example 45, 1-(3-(4-Benzoylpiperazine-1-carbonyl)-4-fluorobenzyl)quinazoline-2,4(1H,3H)-dione] are 668 nM, 34 nM and 11 nM.
Take `O=C(c1ccc(Cl)c(Cn2c(=O)[nH]c(=O)c3ccccc32)c1)N1CCN(c2ncccn2)CC1` [Example 56, 1-(6-Chloro-3-(4-(pyrimidin-2-yl)piperazine-1-carbonyl)benzyl)quinazoline-2,4(1H,3H)-dione]: the figures for the IC50 in assay [1] and in assay [2] were 1180 nM and 30 nM, respectively. For the same compound, in assay [3], the concentration for a half-maximal effect (EC50) is 16 nM.
As to `O=C(c1cc(F)cc(Cn2c(=O)[nH]c(=O)c3cc(F)ccc32)c1)N1CCN(c2ncccn2)CC1` [Example 186, 6-Fluoro-1-(5-fluoro-3-(4-(pyrimidin-2-yl)piperazine-1-carbonyl)benzyl)quinazoline-2,4(1H,3H)-dione], the IC50 worked out at 167 nM in assay [1] and 24 nM in assay [2]. Besides, the EC50 in assay [3] is 6.8 nM.
Regarding `O=C(c1cccc(Cn2c(=O)[nH]c(=O)c3cc(F)ccc32)c1)N1CCN(c2ccccn2)CC1` [Example 140, 6-Fluoro-1-(3-(4-(pyridin-2-yl)piperazine-1-carbonyl)benzyl)quinazoline-2,4(1H,3H)-dione], the IC50 was 155 nM in assay [1] and 37 nM in assay [2]. In assay [3], the EC50 is 8.9 nM.
As to `O=C(c1cccc(Cn2c(=O)[nH]c(=O)c3c(Cl)cccc32)c1)N1CCN(C(=O)C2CCCC2)CC1` [Example 101, 5-Chloro-1-(3-(4-(cyclopentylcarbonyl)piperazine-1-carbonyl)benzyl)quinazoline-2,4(1H,3H)-dione], the IC50 in assay [1] came to 1050 nM; in assay [2] it was 117 nM. Further, in assay [3], the EC50 stood at 20 nM.
On to `O=C(c1cc(Cn2c(=O)[nH]c(=O)c3ccccc32)ccc1F)N1CCN(c2nsc3ccccc23)CC1` [Example 43, 1-(3-(4-(Benzo[d]isothiazol-3-yl)piperazine-1-carbonyl)-4-fluorobenzyl)quinazoline-2,4(1H,3H)-dione], for which the IC50 in assay [1] was found to be 974 nM; in assay [2] it was 51 nM. The EC50 in assay [3] was 18 nM.
As to `O=C(c1ccc(F)c(Cn2c(=O)[nH]c(=O)c3ccccc32)c1)N1CCN(C(=O)C2CCCCC2)CC1` [Example 49, 1-(3-(4-(Cyclohexylcarbonyl)piperazine-1-carbonyl)-6-fluorobenzyl)quinazoline-2,4(1H,3H)-dione], the values for the IC50 in assay [1] and in assay [2] were 421 nM and 32 nM, respectively. The concentration for a half-maximal effect (EC50) in assay [3] is 10 nM.
For `O=C(c1ccc(F)c(Cn2c(=O)[nH]c(=O)c3cc(F)ccc32)c1)N1CCN(c2ccccn2)CC1` [Example 150, 6-Fluoro-1-(6-fluoro-3-(4-(pyridin-2-yl)piperazine-1-carbonyl)benzyl)quinazoline-2,4(1H,3H)-dione], the IC50 in assay [1] is 176 nM; in assay [2], 25 nM. Moreover, the EC50 in assay [3] came out at 16 nM.
Taken in the same sequence, the figures for `O=C(c1cccc(Cn2c(=O)[nH]c(=O)c3cc(F)ccc32)n1)N1CCN(c2ncccn2)CC1` [Example 199, 6-Fluoro-1-((2-(4-(pyrimidin-2-yl)piperazine-1-carbonyl)pyridin-6-yl)methyl)quinazoline-2,4(1H,3H)-dione] were 948 nM, 19 nM and 4.9 nM.
In the case of `O=C(c1cc(Cn2c(=O)[nH]c(=O)c3cc(F)ccc32)ccc1F)N1CCN(c2nccs2)CC1` [Example 188, 6-Fluoro-1-(4-fluoro-3-(4-(thiazol-2-yl)piperazine-1-carbonyl)benzyl)quinazoline-2,4(1H,3H)-dione], the IC50 came to 472 nM in assay [1] and 7.8 nM in assay [2].
As for `O=C(c1cc(Cn2c(=O)[nH]c(=O)c3ccccc32)ccc1F)N1CCN(c2nccs2)CC1` [Example 190, 1-(4-Fluoro-3-(4-(thiazol-2-yl)piperazine-1-carbonyl)benzyl)quinazoline-2,4(1H,3H)-dione], the IC50 worked out at 1380 nM in assay [1] and 21 nM in assay [2].
In the case of `O=C(NCc1ccccc1)c1cc(Cn2c(=O)[nH]c(=O)c3c(F)cccc32)ccc1F` [Example 202, 1-(3-(Benzylcarbamoyl)-4-fluorobenzyl)-5-fluoroquinazoline-2,4(1H,3H)-dione], the IC50 in assay [2] was greater than 10000 nM. In addition, the half-maximal effective concentration (EC50) in assay [3] was greater than 10000 nM.
With `O=C(c1cc(Cn2c(=O)[nH]c(=O)c3c(F)cccc32)ccc1F)N1CCN(c2ccccc2)CC1` [Example 213, 5-Fluoro-1-(4-fluoro-3-(4-phenylpiperazine-1-carbonyl)benzyl)quinazoline-2,4(1H,3H)-dione], the IC50 in assay [2] is 58 nM. Further, the concentration for a half-maximal effect (EC50) in assay [3] came to 590 nM.
